Patent US11304945B2, “Pharmaceutical composition and method for preparing same” (Jiangsu Hengrui Medicine Co., Ltd., priority 2017, dated 2022)

Assay: Pharmacokinetics (PK) study in animals
Format: in vivo
Settings: both sexes, dog; beagle dogs, oral, 30 mg/kg, plasma
Description: 12 beagle dogs were grouped into two groups (6 beagle dogs per group, half male and half female). The beagle dogs were fasted for more than 12 h before the experiment, and food was provided 4 h after the drug administration on the day of the experiment. Water was not deprived during the experiment. The crystal form of compound A and the solid dispersion of compound A, respectively (the ratio of compound A to hydroxypropyl methylcellulose acetate succinate was 1:1, according to the formulation of Experimental Example 3), were administered orally to the two groups of animals with an administration dose of 30 mg/kg. 0.6 mL of blood was taken from climb veins before administration and 0.25, 0.5, 1.0, 2.0, 4.0, 6.0, 8.0, 12, 24 and 72 h after administration. The blood was stored in an ethylenediaminetetraacetic acid (EDTA) anticoagulant tube, and centrifuged for 10 minutes at 3500 rpm (4° C.) to separate the blood plasma. The plasma was stored at −70° C.
The concentration of API in the blood plasma and the administrated solution was determined by liquid chromatography-tandem mass spectrometry (LC/MS/MS). The pharmacokinetic parameters of beagle dogs after drug administration were calculated with the resulting plasma concentration using the non-compartmental model of Phoenix WinNonlin 6.4 software.

AUC(0-inf): 3870 ± 3170 ng·h/mL
Cmax: 630 ± 530 ng/mL
half-life: 3.02 ± 0.65 h
SMILES: CC#CC(=O)N1CC[C@@H](n2cc(-c3ccc(Oc4c(F)cccc4F)cc3)c3c(N)n[nH]c(=O)c32)C1 [Crystal form of compound A, (R)-4-amino-1-(1-(but-2-ynoyl)pyrrolidin-3-yl)-3-(4-(2,6-difluorophenoxy)phenyl)-1,6-dihydro-7H-pyrrolo[2,3-d]pyridazin-7-one]
